Data reported in ChEMBL document CHEMBL2010688, “Tri- and tetrasubstituted pyrazole derivates: regioisomerism switches activity from p38MAP kinase to important cancer kinases” (J Med Chem, 2012).
Calls of active or inactive are those of the source. No cut-off for these calls is given here.

Columns and labels:
[1] = biological target: Mitogen-activated protein kinase 14 (Homo sapiens) (UniProt Q16539); experiment: Inhibition of p38alpha MAP kinase
[2] = biological target: Vascular endothelial growth factor receptor 2 (Homo sapiens, UniProt P35968); experiment: Inhibition of VEGFR2 using poly(Glu,Tyr) as substrate assessed as [33P-gamma]-ATP incorporation after 60 mins by microplate scintillation counting
[3] = biological target: Proto-oncogene tyrosine-protein kinase Src (Homo sapiens, UniProt P12931); experiment: Inhibition of SRC using poly(Glu,Tyr) as substrate assessed as [33P-gamma]-ATP incorporation after 60 mins by microplate scintillation counting
[4] = biological target: Serine/threonine-protein kinase B-raf (Homo sapiens, UniProt P15056, V600E); experiment: Inhibition of BRAF V600E mutant using MEK1-KM as substrate assessed as [33P-gamma]-ATP incorporation after 60 mins by microplate scintillation counting
[5] = biological target: Serine/threonine-protein kinase B-raf (Homo sapiens, UniProt P15056); experiment: Inhibition of wild type B-Raf using MEK1-KM as substrate assessed as [33P-gamma]-ATP incorporation after 60 mins by microplate scintillation counting
Serine/threonine-protein kinase B-raf (Homo sapiens, UniProt P15056), sequence (P15056 whole entry): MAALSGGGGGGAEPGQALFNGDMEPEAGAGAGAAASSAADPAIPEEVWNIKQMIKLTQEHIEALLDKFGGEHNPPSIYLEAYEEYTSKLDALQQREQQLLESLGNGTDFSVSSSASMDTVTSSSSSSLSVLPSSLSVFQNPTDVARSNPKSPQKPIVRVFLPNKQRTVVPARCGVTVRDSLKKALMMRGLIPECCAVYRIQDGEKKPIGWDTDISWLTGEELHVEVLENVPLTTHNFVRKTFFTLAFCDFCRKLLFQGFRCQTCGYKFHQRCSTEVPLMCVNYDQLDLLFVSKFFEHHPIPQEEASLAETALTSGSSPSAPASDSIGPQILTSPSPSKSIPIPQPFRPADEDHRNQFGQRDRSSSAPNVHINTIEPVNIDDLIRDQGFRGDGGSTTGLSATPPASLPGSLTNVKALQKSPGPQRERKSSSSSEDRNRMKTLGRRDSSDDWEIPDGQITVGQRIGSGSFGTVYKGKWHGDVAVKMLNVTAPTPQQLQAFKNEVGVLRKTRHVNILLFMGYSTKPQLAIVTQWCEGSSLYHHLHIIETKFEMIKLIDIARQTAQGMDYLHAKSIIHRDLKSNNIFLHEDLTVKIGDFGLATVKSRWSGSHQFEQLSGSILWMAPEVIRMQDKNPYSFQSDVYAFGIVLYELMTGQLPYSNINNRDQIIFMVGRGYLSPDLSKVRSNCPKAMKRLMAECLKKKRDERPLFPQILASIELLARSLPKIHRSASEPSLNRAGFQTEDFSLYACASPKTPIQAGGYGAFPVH

Serine/threonine-protein kinase B-raf (Homo sapiens, UniProt P15056, V600E), sequence (P15056 2-766 V600E limits assumed): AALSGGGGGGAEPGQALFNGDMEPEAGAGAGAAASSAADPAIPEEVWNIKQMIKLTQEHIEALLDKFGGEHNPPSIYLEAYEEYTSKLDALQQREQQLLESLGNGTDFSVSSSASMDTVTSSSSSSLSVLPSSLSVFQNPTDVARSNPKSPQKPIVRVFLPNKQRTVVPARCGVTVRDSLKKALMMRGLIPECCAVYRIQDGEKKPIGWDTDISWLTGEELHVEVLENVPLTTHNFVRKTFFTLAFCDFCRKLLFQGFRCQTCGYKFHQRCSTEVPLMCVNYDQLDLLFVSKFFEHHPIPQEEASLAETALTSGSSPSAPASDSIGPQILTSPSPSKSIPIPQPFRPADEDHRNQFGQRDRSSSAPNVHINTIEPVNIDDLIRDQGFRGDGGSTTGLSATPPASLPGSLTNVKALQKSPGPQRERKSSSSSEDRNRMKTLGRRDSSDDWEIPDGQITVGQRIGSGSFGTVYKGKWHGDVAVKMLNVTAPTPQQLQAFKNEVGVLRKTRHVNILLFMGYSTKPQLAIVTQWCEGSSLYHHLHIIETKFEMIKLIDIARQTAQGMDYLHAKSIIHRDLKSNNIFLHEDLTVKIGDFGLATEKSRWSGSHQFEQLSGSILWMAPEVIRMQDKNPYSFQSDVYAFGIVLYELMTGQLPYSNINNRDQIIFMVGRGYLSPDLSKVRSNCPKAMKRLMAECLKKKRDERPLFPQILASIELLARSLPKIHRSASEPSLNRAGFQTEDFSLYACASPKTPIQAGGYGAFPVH
Proto-oncogene tyrosine-protein kinase Src, sequence (P12931 2-536 limits assumed): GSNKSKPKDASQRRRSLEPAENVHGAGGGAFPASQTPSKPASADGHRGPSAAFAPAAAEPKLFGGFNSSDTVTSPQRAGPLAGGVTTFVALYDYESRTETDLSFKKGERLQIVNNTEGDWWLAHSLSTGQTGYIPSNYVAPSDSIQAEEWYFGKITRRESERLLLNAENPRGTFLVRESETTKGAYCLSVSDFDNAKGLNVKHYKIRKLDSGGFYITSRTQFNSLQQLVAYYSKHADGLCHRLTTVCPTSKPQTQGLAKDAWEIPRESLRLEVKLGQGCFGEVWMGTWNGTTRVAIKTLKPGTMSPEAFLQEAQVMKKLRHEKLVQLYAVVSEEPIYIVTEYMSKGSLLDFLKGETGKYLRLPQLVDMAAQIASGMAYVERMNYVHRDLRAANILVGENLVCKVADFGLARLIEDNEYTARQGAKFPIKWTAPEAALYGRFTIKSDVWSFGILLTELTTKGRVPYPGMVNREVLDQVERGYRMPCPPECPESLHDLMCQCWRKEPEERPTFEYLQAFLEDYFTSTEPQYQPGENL
Vascular endothelial growth factor receptor 2, sequence (P35968 whole entry): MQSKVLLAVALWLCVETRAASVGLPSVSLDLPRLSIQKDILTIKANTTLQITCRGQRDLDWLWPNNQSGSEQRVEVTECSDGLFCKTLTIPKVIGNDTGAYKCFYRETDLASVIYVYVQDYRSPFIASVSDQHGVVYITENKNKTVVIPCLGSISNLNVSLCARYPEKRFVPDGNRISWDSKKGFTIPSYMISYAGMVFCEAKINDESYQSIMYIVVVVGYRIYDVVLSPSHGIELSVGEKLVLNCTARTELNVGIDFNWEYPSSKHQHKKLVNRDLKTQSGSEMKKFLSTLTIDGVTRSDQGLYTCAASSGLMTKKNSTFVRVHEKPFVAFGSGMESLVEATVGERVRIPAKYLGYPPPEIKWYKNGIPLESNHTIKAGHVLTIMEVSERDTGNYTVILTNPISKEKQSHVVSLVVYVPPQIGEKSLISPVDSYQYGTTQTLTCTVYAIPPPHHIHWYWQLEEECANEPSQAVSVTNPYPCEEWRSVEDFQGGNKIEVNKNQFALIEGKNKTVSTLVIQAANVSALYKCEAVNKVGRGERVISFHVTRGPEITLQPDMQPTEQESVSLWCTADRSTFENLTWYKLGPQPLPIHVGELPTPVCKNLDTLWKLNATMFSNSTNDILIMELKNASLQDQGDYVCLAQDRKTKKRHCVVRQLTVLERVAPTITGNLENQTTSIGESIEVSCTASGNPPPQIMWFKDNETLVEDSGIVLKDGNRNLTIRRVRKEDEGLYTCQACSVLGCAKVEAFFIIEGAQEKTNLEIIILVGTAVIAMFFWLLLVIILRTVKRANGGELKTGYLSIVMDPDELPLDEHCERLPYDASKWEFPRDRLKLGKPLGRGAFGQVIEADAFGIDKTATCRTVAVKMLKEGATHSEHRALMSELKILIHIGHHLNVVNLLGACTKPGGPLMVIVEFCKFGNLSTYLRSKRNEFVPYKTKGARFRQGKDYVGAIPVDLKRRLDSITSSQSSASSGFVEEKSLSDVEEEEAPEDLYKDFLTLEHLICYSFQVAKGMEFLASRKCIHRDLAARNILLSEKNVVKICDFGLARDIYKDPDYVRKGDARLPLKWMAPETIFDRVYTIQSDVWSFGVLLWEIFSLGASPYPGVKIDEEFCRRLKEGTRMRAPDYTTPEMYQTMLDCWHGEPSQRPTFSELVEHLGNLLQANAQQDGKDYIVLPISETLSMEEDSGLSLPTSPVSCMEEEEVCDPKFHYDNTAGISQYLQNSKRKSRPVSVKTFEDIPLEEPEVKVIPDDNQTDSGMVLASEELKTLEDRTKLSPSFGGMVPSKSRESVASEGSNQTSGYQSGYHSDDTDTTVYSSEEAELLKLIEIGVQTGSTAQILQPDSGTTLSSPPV
Mitogen-activated protein kinase 14 (Homo sapiens), sequence (Q16539 whole entry): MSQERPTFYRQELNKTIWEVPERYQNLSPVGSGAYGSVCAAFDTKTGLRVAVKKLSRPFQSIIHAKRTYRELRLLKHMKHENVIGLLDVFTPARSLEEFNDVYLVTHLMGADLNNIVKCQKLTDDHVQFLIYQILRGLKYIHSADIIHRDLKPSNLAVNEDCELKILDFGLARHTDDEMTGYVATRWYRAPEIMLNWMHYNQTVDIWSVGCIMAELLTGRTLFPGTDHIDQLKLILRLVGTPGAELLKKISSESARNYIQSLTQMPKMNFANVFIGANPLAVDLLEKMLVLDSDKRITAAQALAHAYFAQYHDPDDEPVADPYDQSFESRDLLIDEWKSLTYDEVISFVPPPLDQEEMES

| Compound | inhibition [1] | IC50 [2] [µM] | IC50 [3] [µM] | IC50 [4] [µM] | IC50 [5] [µM] |
| --- | --- | --- | --- | --- | --- |
| Nc1c(-c2ccc(F)cc2)c(-c2ccncc2)nn1-c1ccccc1 | inactive |  |  |  |  |
| NC(=O)c1c(-c2ccncc2)nn(-c2ccccc2)c1N | inactive |  |  |  |  |
| Nc1c(-c2ccc(F)cc2)c(-c2ccncc2)nn1-c1ccc(C(F)(F)F)cc1 | inactive | 2.4 | 6.7 | 1.5 |  |
| COc1ccc(-n2nc(-c3ccncc3)c(-c3ccc(F)cc3)c2N)cc1 | inactive |  |  |  |  |
| Nc1c(-c2ccc(F)cc2)c(-c2ccncc2)nn1-c1ccc([N+](=O)[O-])cc1 | inactive | 1.4 | 82 | 1.4 |  |
| Nc1c(-c2ccc(F)cc2)c(-c2ccncc2)nn1-c1c(Cl)cc(Cl)cc1Cl | inactive | 0.034 | 0.399 | 0.592 | 0.27 |
| Cc1ccc(-n2nc(-c3ccncc3)c(-c3ccc(F)cc3)c2N)cc1 | inactive | 2.6 | 53 | 0.89 |  |
| NC(=O)c1c(-c2ccncc2)nn(-c2c(Cl)cc(Cl)cc2Cl)c1N | inactive |  |  | > 100 |  |
| Nc1c(-c2ccc(F)cc2)c(-c2ccncc2)nn1-c1ccc(Cl)cc1 | inactive | 1.2 | 23 | 0.8 |  |
| Fc1ccc(-c2cn(-c3ccc(C(F)(F)F)cc3)nc2-c2ccncc2)cc1 | inactive |  |  |  |  |
| N#Cc1ccc(-n2nc(-c3ccncc3)c(-c3ccc(F)cc3)c2N)cc1 | inactive |  | > 100 |  |  |
| CCOC(=O)c1c(-c2ccncc2)nn(-c2c(Cl)cc(Cl)cc2Cl)c1N | inactive | > 100 | > 100 | > 100 |  |
| Nc1c(C(=O)O)c(-c2ccncc2)nn1-c1c(Cl)cc(Cl)cc1Cl | inactive |  |  | > 100 |  |
| Fc1ccc(-c2cn(-c3c(Cl)cc(Cl)cc3Cl)nc2-c2ccncc2)cc1 | inactive | 0.21 | 2 | 2.5 |  |
| Nc1cc(-c2ccncc2)nn1-c1c(Cl)cc(Cl)cc1Cl | inactive |  | > 100 | > 100 |  |
